Experimental data as given in patent publication US20260345572A1, “PHARMACEUTICAL FORMULATIONS WITH ACTIVITY INHIBITING HISTONE METHYLTRANSFERASES FOR THE TREATMENT OF NEOPLASTIC DISEASES” (Ente Ospedaliero Specializzato in Gastroenterologia …, priority 2022, published 2026).

Columns and labels:
[1] = test system: HT29 cells; assay: Cell viability (WST-1); type: cell-based, human; conditions: FIG. 5
Experimental: (§1) The human cell lines HT29, HCT116, SW480, MDA-MB-231, MDA-MB-468, HGC-27, and PANC1 were cultured in DMEM culture medium, supplemented with 10% fetal bovine serum (FBS); N87, AGS and KATO III were cultured in RPMI culture medium supplemented with 10% FBS; CACO2 were cultured in DMEM culture medium, supplemented with 20% FBS and nonessential amino acids. All cell lines were cultured in the presence of 1% antibiotics (Penicillin and Streptomycin), at 37 °C in an atmosphere of 5% CO2 and always maintained in a subconfluence state.
(§2) Cell viability analysis was performed by using WST-1 kit (Roche), allowing to measure viable cell metabolic activity. In short, the quantitation of mitochondrial dehydrogenase activity is assessed by soluble tetrazolium salt ([…], colorless) conversion into its corresponding product, formazane (colored). The quantitative assessment of salt conversion into its colored form is then performed by spectrophotometrically calculating absorption at 450 nm. Substrate conversion levels are therefore proportional to enzymatic activity which, in turn, represents a marker of cell viability and proliferation.

[2] = test system: HCT116 cells; assay: Cell viability (WST-1); type: cell-based, human; conditions: FIG. 5
Experimental: as §1, §2

[3] = test system: PANC1, SW80, AGS, N87, HGC-27 cells; assay: Cell death and viability, FIG. 6 panel of cell lines; type: cell-based, human; conditions: 72 h
Experimental: as §1
as §2, with “Substrate conversion levels are therefore proportional to enzymatic activity which, in turn, represents a marker of cell viability and proliferation.” left out
Analysis of the percentage of cells undergoing programmed death, referred to as apoptosis, was performed by Annexin V assay. The concentrations of live cells, cells in early apoptosis, in total apoptosis and dead cells were measured with Muse Annexin V and Dead Cell Reagent kit (Luminex). […] After 20 min incubation, fluorescence is read with Guava® Muse® Cell Analyzer. […]

[4] = test system: colorectal cancer stem cells; assay: Clonogenic assay; type: cell-based, human; conditions: FIG. 3C; EM127 + Oxaliplatin, 5-Fluorouracil or Irinotecan 10 μM
Excerpt: (§3) In compliance with Art 170bis, Paragraph 3 C.P.I., it is hereby certified that: • The colorectal cancer stem cells used at the base of the invention object of the present application have been isolated from patients, and the aforementioned cells were obtained following the free and informed consent to their collection and use expressed by the person from whom said material has been collected, under the regulations in force; and • C57BL/6 mice for the AOM/DSS murine model of colorectal cancer were not genetically modified.
For the clonogenic assay, previously dissociated colorectal cancer tumorspheres were plated in triplicate using 500 cells per experimental point and resuspended in 0.3% agarose on a 0.5% agarose layer. Subsequently, they were treated with EM127 and chemotherapeutic compounds.

[5] = test system: HCT116 cells; assay: Apoptotic cell percentage (Annexin V); type: cell-based, human; conditions: FIG. 1B; EM127 + chemotherapeutic compound (Oxaliplatin, 5-Fluorouracil or Irinotecan, 10 μM)
Experimental: as §1
(§4) Analysis of the percentage of cells undergoing programmed death, referred to as apoptosis, was performed by Annexin V assay. The concentrations of live cells, cells in early apoptosis, in total apoptosis and dead cells were measured with Muse Annexin V and Dead Cell Reagent kit (Luminex). 5×10^4 cells/mL were stained with the reagent provided by the kit. After 20 min incubation, fluorescence is read with Guava® Muse® Cell Analyzer. The test was performed on the following cell lines: HCT116, PANC1, SW480, MDA-MB-231, MCF7, AGS.

[6] = test system: AOM/DSS murine model of colorectal cancer; assay: AOM/DSS murine model of colorectal cancer; type: in vivo, C57BL/6 mice; conditions: FIG. 8; EM127 20 mg/kg + Irinotecan 20 mg/kg, intraperitoneally, 14 days; vs Irinotecan alone
Experimental: C57BL/6 mice were treated intraperitoneally with 12 mg/kg azoxymethane (AOM). Dextran sulfate sodium (DSS) was then administered, at 2% in water for five days, followed by two weeks with water only. This cycle was repeated thrice. At +10 days from the last DSS administration, the Inventors proceeded with the treatment with 20 mg/kg EM127 and/or 20 mg/kg Irinotecan, or with the carrier alone, intraperitoneally, for a total of 14 days.

[7] = test system: HCT116-derived tumor spheroids; assay: LIVE/DEAD viability of tumorspheres; type: cell-based, human; conditions: FIG. 2; EM127 + Oxaliplatin or Irinotecan 10 μM
Experimental: The tumorspheres deriving from the continuous cell line HCT116 “HCT116-derived tumor spheroids” were obtained by using a suitable DMEM/F12 Advanced culture medium supplemented with 1× Glutamine, 1× Penicillin/streptomycin, 0.6% glucose, 1×B27, 1×N2, 20 ng/ml EGF, 10 ng/ml bFGF, and cultured in media surface-treated to ensure a very low cell adhesion.
To assess cell viability on HCT116-derived tumorspheres, LIVE/DEAD® Viability/Cytotoxicity Assay kit (Thermo Fisher) was used, allowing to discriminate live cells from dead ones with two probes measuring intracellular enzymatic activity and plasma membrane integrity. Tumorspheres were incubated with the reagent provided by the kit and then visualized with a fluorescence microscope. Live cells are stained with reagent calcein and generate a green fluorescence signal; dead cells are stained with ethidium homodimer, generating a red signal.

[8] = test system: Caco2 colorectal cancer cells; assay: Cell viability (WST-1); type: cell-based, human; conditions: FIG. 1A; EM127 72 h + Oxaliplatin, 5-Fluorouracil or Irinotecan 10 μM for the last 24 h; vs chemotherapeutic compound alone
Experimental: as §1, §2

[9] = test system: MDA-MB-231 breast cancer cells; assay: Cell viability (WST-1); type: cell-based, human; conditions: FIG. 4; EM127 + chemotherapeutic compounds (Paclitaxel 10 μM, Oxaliplatin 10 μM, Doxorubicin 1 μM)
Experimental: as §1, §2

[10] = test system: PANC1 pancreatic cancer cells; assay: Cell viability (WST-1); type: cell-based, human
Experimental: as §1, §2

[11] = test system: AGS gastric cancer cells; assay: Cell viability (WST-1); type: cell-based, human
Experimental: as §1, §2

[12] = test system: N87 gastric cancer cells; assay: Cell viability (WST-1); type: cell-based, human
Experimental: as §1, §2

[13] = test system: SW480 colorectal cancer cells; assay: Cell viability (WST-1); type: cell-based, human
Experimental: as §1, §2

[14] = test system: MDA-MB-468 cells; assay: Cell viability (WST-1); type: cell-based, human; conditions: FIG. 7; EM127 alone; low SMYD3 protein levels
Experimental: as §1, §2

[15] = test system: HGC-27 gastric cancer cells; assay: Cell viability (WST-1); type: cell-based, human
Experimental: as §1, §2

[16] = test system: KATO III cells; assay: Cell viability (WST-1); type: cell-based, human; conditions: FIG. 7; EM127 alone; low SMYD3 protein levels
Experimental: as §1, §2

[17] = test system: MDA-MB-231 breast cancer cells; assay: Synergistic effect, nonviable/apoptotic cell population; type: cell-based, human; conditions: FIG. 9, >1 = synergistic
Experimental: (§5) Analysis of non-viable cell percentage was carried out by counting live cells and dead cells after staining with 0.01% Trypan Blue, a dye permeating cells only in the condition in which plasma membrane integrity is compromised. In short, after collecting the culture medium and the plate-adhering cells, detached by enzymatic treatment with 1% trypsin/EDTA, the pellet obtained by centrifuging was resuspended in an adequate volume of DPBS and 10 μl of cell suspension were diluted in an equal volume of Trypan blue. The counting was performed with a phase-contrast optical microscope, using a Burker chamber.
as §4

[18] = test system: AGS gastric cancer cells; assay: as above; type: cell-based, human; conditions: FIG. 9, >1 = synergistic
Experimental: as §5, §4

[19] = test system: MCF7 breast cancer cells; assay: as above; type: cell-based, human; conditions: FIG. 9, >1 = synergistic
Experimental: as §5, §4

[20] = test system: colorectal cancer stem cells; assay: Cancer stem cell viability; type: cell-based, human; conditions: FIG. 3A; EM127 + Oxaliplatin, 5-Fluorouracil or Irinotecan 10 μM
Excerpt: as §3, §2

[21] = test system: colorectal cancer stem cells; assay: Migration assay (Boyden chamber); type: cell-based, human; conditions: FIG. 3B; EM127 + Oxaliplatin, 5-Fluorouracil or Irinotecan 10 μM
Excerpt: as §3
To assess cell motility, colorectal cancer tumorspheres were suspended in 200 μl non-supplemented stem cell culture medium and plated in the top section of a Boyden culture chamber, which is separated from the bottom part by a polycarbonate membrane allowing cells to migrate. The underlying section contains 600 μl of stem cell medium supplemented with 20 ng/ml EGF and 10 ng/ml basic FGF and chemotherapeutic compounds.

[22] = test system: HR-deficient cell lines; conditions: previously described; cited from earlier work
[23] = single-compound treatment, 72 h, increasing concentrations
[24] = EM127 72 h + 5-Fluorouracil 10 μM last 24 h
[25] = EM127 72 h + Irinotecan 10 μM last 24 h
[26] = EM127 72 h + Oxaliplatin 10 μM last 24 h
[27] = FIG. 6C, EM127 + Olaparib 10 μM, 72 h, vs single compound
[28] = FIG. 4, EM127 + chemotherapeutic compounds (Paclitaxel 10 μM, Oxaliplatin 10 μM, Doxorubicin 1 μM)

O=c1[nH]cc(F)c(=O)[nH]1 [5-Fluorouracil, reference compound]
reduction of cell viability [1, 23]: about 50%
reduction of cell viability [2, 23]: about 50%

O=C(NC1CCN(C(=O)CCl)CC1)c1cc(C2CC2)on1 [EM127]
cell death ([3]; FIG. 6A, B, EM127 + Olaparib 10 μM, vs single compound): increase of cell death
cell viability by HR status ([3]; FIG. 6C, combined treatment EM127 + Olaparib 10 μM): reduction of cell viability only for HR-proficient cell lines
ability to form colonies [4]: synergistic effect
dead (apoptotic) cell percentage [5]: increased
number of tumors at the level of the colon [6]: reduces the number of tumors
live and dead cells by immunofluorescence [7]: synergy
cell viability [8]: reduces cell viability with a greater effect
reduction of cell viability [1, 24]: about 50%
reduction of cell viability [1, 25]: about 50%
reduction of cell viability [1, 26]: about 50%
cell viability [9]: synergistic effect
cell viability [10, 27]: reduction of cell viability
cell viability ([10]; FIG. 10, EM127 + Rucaparib): synergistic effect
cell viability [11, 27]: reduction of cell viability
cell viability ([11]; FIG. 10, EM127 + Rucaparib): synergistic effect
cell viability [12, 28]: synergistic effect
cell viability [12, 27]: reduction of cell viability
cell viability ([12]; FIG. 10, EM127 + Rucaparib): synergistic effect
cell viability ([13]; FIG. 1A, EM127 72 h + Oxaliplatin, 5-Fluorouracil or Irinotecan 10 μM for the last 24 h, vs chemotherapeutic compound alone): reduces cell viability with a greater effect
cell viability ([13]; FIG. 6C, EM127 + Olaparib 10 μM, 72 h, vs single compound, cell line printed SW80): reduction of cell viability
cell viability ([13]; FIG. 10, EM127 + Rucaparib): synergistic effect
cell viability [14]: absence of effect
reduction of cell viability [2, 24]: about 50%
reduction of cell viability [2, 25]: about 50%
reduction of cell viability [2, 26]: about 50%
cell viability [15, 28]: synergistic effect
cell viability [15, 27]: reduction of cell viability
cell viability ([15]; FIG. 10, EM127 + Rucaparib): synergistic effect
cell viability [16]: absence of effect
synergistic effect ([17]; EM127 + Doxorubicin): higher than 1
synergistic effect ([17]; EM127 + Paclitaxel): higher than 1
synergistic effect ([18]; EM127 + Doxorubicin): higher than 1
synergistic effect ([18]; EM127 + Paclitaxel): higher than 1
synergistic effect ([19]; EM127 + Doxorubicin): higher than 1
synergistic effect ([19]; EM127 + Paclitaxel): higher than 1
cell viability [20]: synergistic effect
ability to migrate [21]: synergistic effect

CCc1c2c(nc3ccc(OC(=O)N4CCC(N5CCCCC5)CC4)cc13)-c1cc3c(c(=O)n1C2)COC(=O)[C@]3(O)CC [Irinotecan, reference compound]
reduction of cell viability [1, 23]: about 50%
reduction of cell viability [2, 23]: about 50%

O=C(c1cc(Cc2n[nH]c(=O)c3ccccc23)ccc1F)N1CCN(C(=O)C2CC2)CC1 [Olaparib]
sensitivity to treatment with Olaparib alone [22]: sensitive

N[C@@H]1CCCC[C@H]1N.[Pt+2] [Oxaliplatin, reference compound]
reduction of cell viability [1, 23]: about 50%
reduction of cell viability [2, 23]: about 50%
